In US11000033B2, “Ketone or oxime compound, and herbicide” (NISSAN CHEMICAL CORPORATION, priority 2014, dated 2021):

How the values were obtained:
Format in all cases: in vivo
[1] = system: wheat; assay: Test Example 4: effect on crop by soil treatment (symbol e); conditions: for e: wheat, effect grade on crop: 320 g/ha
Procedure, shortened: (§1)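 Plants are raised in a greenhouse (25° C. to 30° C.) from spot-sown seed, which sits under about 1.5 cm of sterilized diluvial soil in a box shared with weed species.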

[2] = system: Leptochloa chinensis; assay: Test Example 3: herbicidal effect by foliage application, Wagner pot (symbol D); conditions: application herbicide amount 320 g/ha
Procedure, shortened: (§2)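 Herbicidal activity was rated three weeks after a foliar spray of diluted emulsion concentrate, applied at a predetermined dose to plants grown for 14 days from seed in waterlogged alluvial soil within a 25–30 °C greenhouse.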

[3] = system: Chenopodium album; assay: Test Example 5: herbicidal effect by foliage application, plastic box (symbol O); conditions: 320 g/ha, 3 weeks after application
Procedure, shortened: (§3)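 Leaf-applied emulsion, water-diluted to a preset herbicide dose, on two-week-old seedlings raised in a 25° C. to 30° C. greenhouse; injury rated at 3 weeks using earlier criteria.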

[4] = system: Lolium multiflorum Lam.; assay: Test Example 4: herbicidal effect by soil treatment (symbol K); conditions: for K: Lolium multiflorum Lam., herbicidal effect grade: 320 g/ha
Procedure, shortened: (§4)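 Seeds were sown in sterilized diluvial soil, covered with about 1.5 cm of soil, and the soil surface was sprayed with a water-diluted emulsion of the compound at a predetermined rate. Plants grew in a greenhouse at 25° C. to 30° C.; effects were scored visually 3 weeks after application.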

[5] = system: Amaranthus retroflexus; assay: Test Example 4: herbicidal effect by soil treatment (symbol N); conditions: for N: Amaranthus retroflexus, herbicidal effect grade: 320 g/ha
Procedure, shortened: as §4

[6] = system: Echinochloa oryzacola Vasing.; assay: Test Example 1: herbicidal activity, application before weed generation in submerged conditions (symbol A); conditions: application herbicide amount 320 g/ha
Procedure, shortened: (§5)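 Weed control was rated three weeks after treatment on a 0–5 scale, from 5% or lower up to 90% or more. Pre-emergence water-surface application of diluted emulsion at a predetermined rate was made on the day of sowing, in flooded (4 cm water) pots containing rice seedlings, kept at 25–30 °C under glass.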

[7] = system: Chenopodium album; assay: Test Example 4: herbicidal effect by soil treatment (symbol O); conditions: for O: Chenopodium album, herbicidal effect grade: 320 g/ha
Procedure, shortened: as §4

[8] = system: rapeseed; assay: Test Example 4: effect on crop by soil treatment (symbol g); conditions: for g: rapeseed, effect grade on crop: 320 g/ha
Procedure, shortened: as §1

[9] = system: Cyperus difformis; assay: Test Example 3: herbicidal effect by foliage application, Wagner pot (symbol E); conditions: application herbicide amount 320 g/ha
Procedure, shortened: as §2

[10] = system: rice; assay: Test Example 4: effect on crop by soil treatment (symbol b); conditions: for b: directly sowed rice plant, effect grade on crop: 320 g/ha
Procedure, shortened: as §1

[11] = system: Stellaria media; assay: Test Example 5: herbicidal effect by foliage application, plastic box (symbol P); conditions: 320 g/ha, 3 weeks after application
Procedure, shortened: as §3

[12] = system: wheat; assay: Test Example 5: effect on crop by foliage application, plastic box (symbol e); conditions: 320 g/ha, 3 weeks after application
Procedure, shortened: (§6)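 Soil: sterilized diluvial. Container: plastic box, 21 × 13 cm, 7 cm deep. Sowing: spot-like, ~1.5 cm cover. Growth: greenhouse, 25° C. to 30° C.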

[13] = system: Apera spica-venti; assay: Test Example 5: herbicidal effect by foliage application, plastic box (symbol L); conditions: 320 g/ha, 3 weeks after application
Procedure, shortened: as §3

[14] = system: Avena fatua; assay: Test Example 5: herbicidal effect by foliage application, plastic box (symbol I); conditions: 320 g/ha, 3 weeks after application
Procedure, shortened: as §3

[15] = system: beet; assay: Test Example 4: effect on crop by soil treatment (symbol f); conditions: for f: beet, effect grade on crop: 320 g/ha
Procedure, shortened: as §1

[16] = system: Galium spurium; assay: Test Example 4: herbicidal effect by soil treatment (symbol Q); conditions: for Q: Galium spurium, herbicidal effect grade: 320 g/ha
Procedure, shortened: as §4

[17] = system: Monochoria vaginalis; assay: Test Example 1: herbicidal activity, application before weed generation in submerged conditions (symbol C); conditions: application herbicide amount 320 g/ha
Procedure, shortened: as §5

[18] = system: rice plant; assay: Test Example 5: effect on crop by foliage application, plastic box (symbol b); conditions: 320 g/ha, 3 weeks after application
Procedure, shortened: as §6

[19] = system: Abutilon theophrasti; assay: Test Example 5: herbicidal effect by foliage application, plastic box (symbol M); conditions: 320 g/ha, 3 weeks after application
Procedure, shortened: as §3

[20] = application herbicide amount 320 g/ha

Row | SMILES | e: wheat, effect grade on crop [1] | herbicidal effect on D (Leptochloa chinensis), grade 0-5 [2] | O: Chenopodium album, herbicidal effect (criteria 0-5) [3] | K: Lolium multiflorum Lam., herbicidal effect grade [4] | N: Amaranthus retroflexus, herbicidal effect grade [5] | Herbicidal effect grade, A: Echinochloa oryzacola Vasing. [6] | O: Chenopodium album, herbicidal effect grade [7] | g: rapeseed, effect grade on crop [8] | herbicidal effect on E, grade 0-5 [9] | b: directly sowed rice plant, effect grade on crop [10] | P: Stellaria media, herbicidal effect (criteria 0-5) [11] | e: wheat, effect on crop (criteria 0-5) [12] | L: Apera spica-venti, herbicidal effect (criteria 0-5) [13] | I: Avena fatua, herbicidal effect (criteria 0-5) [14] | f: beet, effect grade on crop [15] | Q: Galium spurium, herbicidal effect grade [16] | Herbicidal effect grade, C: Monochoria vaginalis [17] | b: directly sowed rice plant, effect on crop (criteria 0-5) [18] | M: Abutilon theophrasti, herbicidal effect (criteria 0-5) [19] | also measured
1 | CC(CC1CC(O)=C(c2c(C)cc(C)cc2C)C1=O)=NOCCS(C)(=O)=O (stereo not shown) [1-110] | 5 (Herbicidal ratio of 90% or more (almost completely withered)) | 5 (Herbicidal ratio of 90% or more (almost completely withered)) | 2 (Herbicidal ratio of 20% or higher and lower than 40%) | 5 (Herbicidal ratio of 90% or more (almost completely withered)) | 0 (Herbicidal ratio of 5% or lower (almost no effect)) | 3 (Herbicidal ratio of 40% or higher and lower than 70%) | 0 (Herbicidal ratio of 5% or lower (almost no effect)) | 1 (Herbicidal ratio of 5% or higher and lower than 20%) | 5 (Herbicidal ratio of 90% or more (almost completely withered)) | 5 (Herbicidal ratio of 90% or more (almost completely withered)) | 3 (Herbicidal ratio of 40% or higher and lower than 70%) | 5 (Herbicidal ratio of 90% or more (almost completely withered)) | 5 (Herbicidal ratio of 90% or more (almost completely withered)) | 5 (Herbicidal ratio of 90% or more (almost completely withered)) | 0 (Herbicidal ratio of 5% or lower (almost no effect)) | 0 (Herbicidal ratio of 5% or lower (almost no effect)) | 0 (Herbicidal ratio of 5% or lower (almost no effect)) | 5 (Herbicidal ratio of 90% or more (almost completely withered)) | 0 (Herbicidal ratio of 5% or lower (almost no effect)) | 
2 | CC(CC1CC(O)=C(c2c(C)cc(C)cc2C)C1=O)=NOCC[S+](C)[O-] (stereo not shown) [1-125] | 3 (Herbicidal ratio of 40% or higher and lower than 70%) | 5 (Herbicidal ratio of 90% or more (almost completely withered)) | 1 (Herbicidal ratio of 5% or higher and lower than 20%) | 5 (Herbicidal ratio of 90% or more (almost completely withered)) | 0 (Herbicidal ratio of 5% or lower (almost no effect)) | 3 (Herbicidal ratio of 40% or higher and lower than 70%) | 0 (Herbicidal ratio of 5% or lower (almost no effect)) | 0 (Herbicidal ratio of 5% or lower (almost no effect)) | 2 (Herbicidal ratio of 20% or higher and lower than 40%) | 5 (Herbicidal ratio of 90% or more (almost completely withered)) | 2 (Herbicidal ratio of 20% or higher and lower than 40%) | 5 (Herbicidal ratio of 90% or more (almost completely withered)) | 5 (Herbicidal ratio of 90% or more (almost completely withered)) | 5 (Herbicidal ratio of 90% or more (almost completely withered)) | 0 (Herbicidal ratio of 5% or lower (almost no effect)) | 0 (Herbicidal ratio of 5% or lower (almost no effect)) | 1 (Herbicidal ratio of 5% or higher and lower than 20%) | 5 (Herbicidal ratio of 90% or more (almost completely withered)) | 0 (Herbicidal ratio of 5% or lower (almost no effect)) | 
3 | CC(CC1CC(O)=C(c2c(C)cc(C)cc2C)C1=O)=NOCc1ccccc1C(F)(F)F (stereo not shown) [1-116] | 0 (Herbicidal ratio of 5% or lower (almost no effect)) | 3 (Herbicidal ratio of 40% or higher and lower than 70%) | 3 (Herbicidal ratio of 40% or higher and lower than 70%) | 4 (Herbicidal ratio of 70% or higher and lower than 90%) | 5 (Herbicidal ratio of 90% or more (almost completely withered)) | 5 (Herbicidal ratio of 90% or more (almost completely withered)) | 0 (Herbicidal ratio of 5% or lower (almost no effect)) | 2 (Herbicidal ratio of 20% or higher and lower than 40%) | 4 (Herbicidal ratio of 70% or higher and lower than 90%) | 1 (Herbicidal ratio of 5% or higher and lower than 20%) | 2 (Herbicidal ratio of 20% or higher and lower than 40%) | 3 (Herbicidal ratio of 40% or higher and lower than 70%) | 5 (Herbicidal ratio of 90% or more (almost completely withered)) | 4 (Herbicidal ratio of 70% or higher and lower than 90%) | 0 (Herbicidal ratio of 5% or lower (almost no effect)) | 0 (Herbicidal ratio of 5% or lower (almost no effect)) | 5 (Herbicidal ratio of 90% or more (almost completely withered)) | 4 (Herbicidal ratio of 70% or higher and lower than 90%) | 1 (Herbicidal ratio of 5% or higher and lower than 20%) | 
4 | CC#Cc1cc(C)c(C2=C(O)CC(CC(=NOCCOC)C3CC3)C2=O)c(C)c1 (stereo not shown) [9-021] |  |  |  |  |  |  |  |  |  |  |  |  |  |  |  |  |  |  |  | Effect on crop grade, e: wheat [1, 20]: 3 (Herbicidal ratio of 40% or higher and lower than 70%); D (Leptochloa chinensis) herbicidal effect grade ([2]; Table 24): 5 (Herbicidal ratio of 90% or more (almost completely withered)); O: Chenopodium album, herbicidal effect grade [3]: 3 (Herbicidal ratio of 40% or higher and lower than 70%); Herbicidal effect grade, K: Lolium multiflorum Lam. [4, 20]: 5 (Herbicidal ratio of 90% or more (almost completely withered)); Herbicidal effect grade, N: Amaranthus retroflexus [5, 20]: 0 (Herbicidal ratio of 5% or lower (almost no effect)); A (Echinochloa oryzacola Vasing.) herbicidal effect grade [6]: 5 (Herbicidal ratio of 90% or more (almost completely withered)); Herbicidal effect grade, O: Chenopodium album [7, 20]: 0 (Herbicidal ratio of 5% or lower (almost no effect)); Effect on crop grade, g: rapeseed [8, 20]: 2 (Herbicidal ratio of 20% or higher and lower than 40%); E herbicidal effect grade ([9]; Table 24): 5 (Herbicidal ratio of 90% or more (almost completely withered)); Effect on crop grade, b: directly sowed rice plant [10, 20]: 5 (Herbicidal ratio of 90% or more (almost completely withered)); P: Stellaria media, herbicidal effect grade [11]: 1 (Herbicidal ratio of 5% or higher and lower than 20%); e: wheat, effect on crop grade [12]: 4 (Herbicidal ratio of 70% or higher and lower than 90%); L: Apera spica-venti, herbicidal effect grade [13]: 5 (Herbicidal ratio of 90% or more (almost completely withered)); I: Avena fatua, herbicidal effect grade [14]: 4 (Herbicidal ratio of 70% or higher and lower than 90%); Effect on crop grade, f: beet [15, 20]: 0 (Herbicidal ratio of 5% or lower (almost no effect)); Herbicidal effect grade, Q: Galium spurium [16, 20]: 0 (Herbicidal ratio of 5% or lower (almost no effect)); C (Monochoria vaginalis) herbicidal effect grade [17]: 2 (Herbicidal ratio of 20% or higher and lower than 40%); b: directly sowed rice plant, effect on crop grade [18]: 5 (Herbicidal ratio of 90% or more (almost completely withered)); M: Abutilon theophrasti, herbicidal effect grade [19]: 2 (Herbicidal ratio of 20% or higher and lower than 40%)
